This is an account of results in article PMC3223389 (Frontiers in Pharmacology, 2011).

This test deals with T1, P2X2/3 receptors (Homo sapiens, UniProt P56373+Q9UBL9).
T1 sequence (Q9UBL9 1-471): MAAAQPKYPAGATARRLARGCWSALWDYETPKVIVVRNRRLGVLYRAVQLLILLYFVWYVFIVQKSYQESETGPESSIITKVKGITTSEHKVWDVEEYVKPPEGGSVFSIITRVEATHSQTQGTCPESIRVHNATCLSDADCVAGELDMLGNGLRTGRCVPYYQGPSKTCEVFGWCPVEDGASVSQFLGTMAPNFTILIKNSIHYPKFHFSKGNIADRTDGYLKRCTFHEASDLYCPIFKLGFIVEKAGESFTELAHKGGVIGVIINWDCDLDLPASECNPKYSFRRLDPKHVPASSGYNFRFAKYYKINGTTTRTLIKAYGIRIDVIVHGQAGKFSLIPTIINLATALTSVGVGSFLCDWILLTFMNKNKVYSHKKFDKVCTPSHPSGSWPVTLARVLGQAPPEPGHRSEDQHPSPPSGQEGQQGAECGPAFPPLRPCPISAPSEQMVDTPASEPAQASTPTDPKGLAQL
T1 sequence (P56373 1-397): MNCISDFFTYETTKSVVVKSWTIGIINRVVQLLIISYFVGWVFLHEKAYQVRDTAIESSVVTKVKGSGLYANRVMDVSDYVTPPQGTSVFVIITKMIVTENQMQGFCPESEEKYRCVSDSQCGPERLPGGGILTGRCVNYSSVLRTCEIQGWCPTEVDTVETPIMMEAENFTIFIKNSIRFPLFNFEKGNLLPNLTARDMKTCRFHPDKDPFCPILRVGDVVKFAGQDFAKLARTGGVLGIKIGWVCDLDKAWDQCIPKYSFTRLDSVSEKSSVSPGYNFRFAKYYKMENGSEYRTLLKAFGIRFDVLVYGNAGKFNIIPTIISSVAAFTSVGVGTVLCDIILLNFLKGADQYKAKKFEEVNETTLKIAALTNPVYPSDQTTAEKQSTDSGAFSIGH
The test is described as follows: SyncroPatch 96 recording of P2X2/3 receptors in 1321N1 cells. To be noted: 10 μM, 1321N1 cell, three applications with intermittent wash steps. The test is classed as cell-based. For orientation: Patch clamp records ionic current or voltage across a cell membrane.

As for `Nc1ncnc2c1ncn2[C@@H]1O[C@H](COP(=O)(O)OP(=O)(O)OP(=O)(O)O)[C@@H](O)[C@H]1O` [ATP], the “activation of P2X2/3 receptors” value is on record as “repeatedly activated”.
